The subject of one assay is collagen type I. Put plainly: Collagen type I expression by immunocytochemistry in human dermal fibroblasts. The class given is cell-based. The method, then: The peptide Acetyl-Val-Leu-Leu-Lys was incubated on human dermal fibroblasts cultured in vitro and the expression of the collagen type I was measured using an immunocytochemistry (ICC) method.
The human dermal fibroblasts were cultured within growth medium enriched with Foetal Calf Serum (FCS) at 10% and incubated for 2 days at 37° C. Then the growth medium was exchanged for a standard medium containing sodium ascorbyl at 5 μg/ml with FCS at 1% and with or without the Acetyl-Val-Leu-Leu-Lys peptide at 5.1 mg/ml. A positive control condition with sodium ascorbyl at 20 μg/ml was performed. Cells were incubated for 72 hours at 37° C. with the peptide. Cultured human dermal fibroblasts were fixed by acetone for 10 minutes at −20° C. and incubated for 1 hour at room temperature with a primary antibody against collagen type I [Abcam] diluted at 1/250. Fluorescein isothiocyanate (FITC) labelled secondary antibody [CliniSciences, France] was used for revelation. The obtained immuno-staining was observed using a confocal laser scanning microscope [TCS SPE, Leica, France] and quantified by an image analyzer [Quantimet Q5001W, Leica, France]. The staining occupation was evaluated. The results were presented as a mean+/−SEM (Standard Error of Mean) from 6 measures.

The test system of the next assay is injured rabbit cornea. The following applies: Hara et al., Exp Eye Res, 2001; cited from earlier work.
Assay [1] has as its system epithelial cells from rabbit cornea. The following applies: Hara et al., Exp Eye Res, 2001; cited from earlier work.
The subject of a further assay is tropoelastin gene (ELN). Put plainly: ELN mRNA level by qRT-PCR in human dermal fibroblasts. The class given is cell-based. The following applies: summary of Table 3. The method, then:
The peptide Acetyl-Val-Leu-Leu-Lys was incubated on human dermal fibroblasts cultured in vitro and the expression of the tropoelastin gene (ELN) was measured using a qRT-PCR method.
The human dermal fibroblasts were cultured within growth medium enriched with FCS at 10% and incubated for 1 day at 37° C. Then the growth medium was exchanged for a standard medium without FCS but with or without the Acetyl-Val-Leu-Leu-Lys peptide at 1.0 μg/ml. Cells were incubated for 24 hours, 48 hours or 72 hours at 37° C. before extraction of total RNA. The level of ELN mRNAs in the different conditions was evaluated comparatively to the level of EEF1A 1 mRNA as housekeeping gene (qRT-PCR method) for each condition. The results were calculated through the level of ELN mRNA measured in the control condition (without peptide treatment) as 100% and presented as a mean+/−SEM from 3 assays in duplicate.
For orientation: In qPCR the cycle at which signal appears reflects the starting amount.

Assay [2] has as its system glutaredoxin-2 gene (GLRX2). Put plainly: GLRX2 mRNA level by qRT-PCR in human dermal fibroblasts. The class given is cell-based. The settings on record: summary of Table 4. The method, then: The peptide Acetyl-Val-Leu-Leu-Lys was incubated on human dermal fibroblasts cultured in vitro and the expression of the glutaredoxin-2 gene (GLRX2), involved in cellular anti-oxidative defenses) was measured using a qRT-PCR method.
The human dermal fibroblasts were cultured within growth medium enriched with FCS at 10% and incubated for 1 day at 37° C. Then the growth medium was exchanged for a standard medium without FCS with or without the Acetyl-Val-Leu-Leu-Lys peptide at 1.0 μg/ml. Cells were incubated for 6 hours at 37° C. before extraction of total RNA. The level of GLRX2 mRNAs was evaluated comparatively to the level of HPRT1 (hypoxanthine phosphoribosyltransferase I) mRNA as housekeeping gene (qRT-PCR method) for each condition.
The results were calculated through the level of GLRX2 mRNA measured in the control condition (without peptide treatment) as 100% and presented as a mean+/−SEM from 3 assays in duplicated.

In assay [3] the test system is collagen type XIV gene (COL14A1). Put plainly: COL14A1 mRNA level by qRT-PCR in human dermal fibroblasts. The class given is cell-based. The settings on record: summary of Table 2. The method, then:
The peptide Acetyl-Val-Leu-Leu-Lys was incubated on human dermal fibroblasts cultured in vitro and the expression of the collagen type XIV gene (COL14A1) was measured using a quantitative reverse-transcription and polymerase chain reaction (qRT-PCR) method.
The human dermal fibroblasts were cultured within growth medium enriched with FCS at 10% and incubated for 1 day at 37° C. Then the growth medium was exchanged for a standard medium without FCS but with or without the Acetyl-Val-Leu-Leu-Lys peptide at 1.0 μg/ml. Cells were then incubated for 24 hours, 48 hours or 72 hours at 37° C. before extraction of total RNA. The level of COL14A1 mRNAs in the different conditions was evaluated comparatively to the level of EEF1A1 mRNA as housekeeping gene (qRT-PCR method) for each condition.
The results were calculated through the level of COL14A1 mRNA measured in the control condition (without peptide treatment) for the different incubation times as 100% and presented as a mean+/−SEM from 3 or 5 assays in duplicate.

Residues, ends and D or L forms follow the SMILES beside them.

In the case of sodium ascorbyl [reference compound], in the assay on collagen type I (positive control at 20 μg/ml, 72 hours, human dermal fibroblasts, mean +/− SEM from 6 measures, control 10.68 +/− 1), the “% of staining occupation (collagen type I immuno-staining)” value was 18.01 +/− 1.07 (**) %.

Take “Val-Leu-Leu-His (VLLH; printed: Val-Leu-Leu-His)”: the “wound healing activity on injured rabbit cornea (in words)” value in the assay on injured rabbit cornea is “significant wound healing activity on injured rabbit cornea”. In addition, the “proliferation of epithelial cells from rabbit cornea (in words)” value in assay [1] is given as “stimulate proliferation of epithelial cells from rabbit cornea”.

For the molecule `CC(=O)N[C@H](C(=O)N[C@@H](CC(C)C)C(=O)N[C@@H](CC(C)C)C(=O)N[C@@H](CCCCN)C(=O)O)C(C)C` [Acetyl-Val-Leu-Leu-Lys, N-Acetyl-Val-Leu-Leu-Lys-OH] (Ac-VLLK-OH), in the assay with collagen type I (summary of Table 1), the “effect on level of collagen type I (in words)” value is listed as “significantly increased the level of collagen type I”. The “effect on level of ELN gene expression (in words)” value in the assay on tropoelastin gene (ELN) was “specifically and significantly increased the level of ELN gene expression”. In addition, the “effect on level of GLRX2 gene expression (in words)” value in assay [2] was “specifically increased the level of GLRX2 gene expression”. The “effect on level of COL14A1 gene expression (in words)” value in assay [3] is “specifically and significantly increased the level of COL14A1 gene expression”.

The record behind these values is patent US20130108562A1, “Cosmetic Composition Containing Oligopeptides” (Cognis IP Management GmbH, priority 2010, published 2013).
